Experimental data: patent US10821115B2, “Compounds that inhibit Mcl-1 protein” (priority 2017, dated 2020)
Like-named read-outs stand apart in the source and are kept apart here.

Tests used:
[1] = biological target: recombinant human Mcl-1 (residues 171-327) / Bim interaction (Homo sapiens (Human), UniProt Q07820); assay: biochemical; assay type: binding; details: read-out: Mcl-1 HTRF IC50
[2] = system: human multiple myeloma cell line, OPM-2; assay: Cell viability assay (OPM-2 10 FBS), CellTiter-Glo; assay type: cell-based
How it was run: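 3000 cells/well, RPMI 1640 + 10% FBS; serial compound dilutions, 16 h, 37 °C/5% CO2.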

[3] = 0.1 nM Mcl-1(171-327), 0.05 nM biotin-Bim (51-76)
[4] = read-out: OPM-2 10% FBS IC50 IP, OPM-2 cells, 10% FBS, 16 h incubation
[5] = TR-FRET, Mcl-1(171-327) / biotin-Bim (51-76)
[6] = Homo sapiens, OPM-2, 16 h, read-out: OPM-2 10% FBS IC50 IP, OPM-2 cells, 10% FBS, 16 h, CellTiter-Glo
[7] = read-out: OPM-2 10% FBS IC50 IP, OPM-2 cells, 10% FBS, 16 h, CellTiter-Glo

Sequence of recombinant human Mcl-1 (residues 171-327) / Bim interaction (Q07820 171-327): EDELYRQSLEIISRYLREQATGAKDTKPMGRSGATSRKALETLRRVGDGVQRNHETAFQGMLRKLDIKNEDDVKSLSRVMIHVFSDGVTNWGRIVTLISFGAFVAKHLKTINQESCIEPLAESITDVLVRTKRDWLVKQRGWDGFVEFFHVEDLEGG

Row | Compound | IC50 [1, 3] [nM] | IC50 [2, 4] [nM] | IC50 [1, 5] [nM] | IC50 [2, 6] [nM] | IC50 [2, 7] [nM]
1 | CO[C@@]1(CN2CCN3CCN(S(C)(=O)=O)C[C@@H]3C2)/C=C/C[C@H](C)[C@@H](C)S(=O)(=O)NC(=O)c2ccc3c(c2)N(C[C@@H]2CC[C@H]21)C[C@@]1(CCCc2cc(Cl)ccc21)CO3 (single isomer, unassigned) [Example 245] | 0.12 | 58 | – | – | –
2 | C[C@@H]1[C@@H](C)CCC[C@](O)(CS(C)(=O)=O)[C@@H]2CC[C@H]2CN2C[C@@]3(CCCc4cc(Cl)ccc43)COc3ccc(cc32)C(=O)NS1(=O)=O (stereo in doubt) [Example 100161] | – | – | 0.355 | 757 | –
3 | CO[C@]1(CCN(C)C)CCC[C@H](C)[C@@H](C)S(=O)(=O)NC(=O)c2ccc3c(c2)N(C[C@@H]2CC[C@H]21)C[C@@]1(CCCc2cc(Cl)ccc21)CO3 [Example 100472, (1S,3′R,6′R,7′S,11′S,12′R)-6-chloro-7′-(2-(dimethylamino)ethyl)-7′-methoxy-11′,12′-dimethyl-3,4-dihydro-2H,15′H-spiro[naphthalene-1,22′-[20]oxa[13]thia[1,14]diazatetracyclo [14.7.2.0~3,6~.0~19,24~]pentacosa[16,18,24]trien]-15′-one 13′,13′-dioxide] | – | – | 0.651 | 357 | –
4 | C[C@@H]1[C@@H](C)C/C=C/[C@@](O)(C#CCCc2ccccn2)[C@@H]2CC[C@H]2CN2C[C@@]3(CCCc4cc(Cl)ccc43)COc3ccc(cc32)C(=O)NS1(=O)=O [Example 100454, (1S,3′R,6′R,7′S,8′E,11′S,12′R)-6-chloro-7′-hydroxy-11′,12′-dimethyl-7′-(4-(2-pyridinyl)-1-butyn-1-yl)-3,4-dihydro-2H,15′H-spiro[naphthalene-1,22′-[20]oxa[13]thia[1,14]diazatetracyclo [14.7.2.0~3,6~.0~19,24~]pentacosa[8,16,18,24]tetraen]-15′-one 13′,13′-dioxide] | – | – | 0.652 | – | 802
5 | C[C@@H]1[C@@H](C)C/C=C/[C@](O)(CC(=O)OCC2(C)COC2)[C@@H]2CC[C@H]2CN2C[C@@]3(CCCc4cc(Cl)ccc43)COc3ccc(cc32)C(=O)NS1(=O)=O [Example 100298, (3-methyl-3-oxetanyl)methyl ((1S,3′R,6′R,7′R,8′E,11′S,12′R)-6-chloro-7′-hydroxy-11′,12′-dimethyl-13′,13′-dioxido-15′-oxo-3,4-dihydro-2H-spiro[naphthalene-1,22′-[20]oxa[13]thia[1,14]diazatetracyclo [14.7.2.0~3,6~.0~19,24~]pentacosa[8,16,18,24]tetraen]-7′-yl)acetate] | – | – | 0.14 | 199 | –
6 | C[C@@H]1[C@@H](C)CCC[C@](O)(CC(=O)N(C)C(C)(C)C)[C@@H]2CC[C@H]2CN2C[C@@]3(CCCc4cc(Cl)ccc43)COc3ccc(cc32)C(=O)NS1(=O)=O (single isomer, unassigned) [Example 100142] | – | – | 0.717 | – | 663
7 | C[C@@H]1[C@@H](C)C/C=C/[C@@](O)(Cc2ccncn2)[C@@H]2CC[C@H]2CN2C[C@@]3(CCCc4cc(Cl)ccc43)COc3ccc(cc32)C(=O)NS1(=O)=O [Example 100152, (1S,3′R,6′R,7′S,8′E,11′S,12′R)-6-chloro-7′-hydroxy-11′,12′-dimethyl-7′-(4-pyrimidinylmethyl)-3,4-dihydro-2H,15′H-spiro[naphthalene-1,22′-[20]oxa[13]thia[1,14]diazatetracyclo [14.7.2.0~3,6~.0~19,24~]pentacosa[8,16,18,24]tetraen]-15′-one 13′,13′-dioxide] | – | – | 0.449 | – | 377
8 | COC(=O)c1nc(C[C@]2(OC)/C=C/C[C@H](C)[C@@H](C)S(=O)(=O)NC(=O)c3ccc4c(c3)N(C[C@@H]3CC[C@H]32)C[C@@]2(CCCc3cc(Cl)ccc32)CO4)oc1C [Example 100583, methyl 2-(((1S,3′R,6′R,7′S,8′E,11′S,12′R)-6-chloro-7′-methoxy-11′,12′-dimethyl-13′,13′-dioxido-15′-oxo-3,4-dihydro-2H-spiro[naphthalene-1,22′-[20]oxa[13]thia[1,14]diazatetracyclo [14.7.2.0~3,6~.0~19,24~]pentacosa[8,16,18,24]tetraen]-7′-yl)methyl)-5-methyl-1,3-oxazole-4-carboxylate] | – | – | 0.124 | 411 | –
9 | CO[C@@]1(CC(=O)O)/C=C/C[C@H](C)[C@@H](C)S(=O)(=O)NC(=O)c2ccc3c(c2)N(C[C@@H]2CC[C@H]21)C[C@@]1(CCCc2cc(Cl)ccc21)CO3 [Example 100307, ((1S,3′R,6′R,7′S,8′E,11′S,12′R)-6-chloro-7′-methoxy-11′,12′-dimethyl-13′,13′-dioxido-15′-oxo-3,4-dihydro-2H-spiro[naphthalene-1,22′-[20]oxa[13]thia[1,14]diazatetracyclo [14.7.2.0~3,6~.0~19,24~]pentacosa[8,16,18,24]tetraen]-7′-yl)acetic acid] | – | – | 0.049 | 1030 | –
10 | CO[C@@]1(C#CCCN2CCN3CCOC[C@@H]3C2)/C=C/C[C@H](C)[C@@H](C)S(=O)(=O)NC(=O)c2ccc3c(c2)N(C[C@@H]2CC[C@H]21)C[C@@]1(CCCc2cc(Cl)ccc21)CO3 [Example 100011, (1 S,3′R,6′R,7′S,8′E,11′S, 12′R)-6-chloro-7′-(4-((9aS)-hexahydropyrazino[2,1-c][1,4]oxazin-8(1H)-yl)-1-butyn-1-yl)-7′-methoxy-11′,12′-dimethyl-3,4-dihydro-2H,15′H-spiro[naphthalene-1,22′-[20]oxa[13]thia[1,14]diazatetracyclo[14.7.2.0-3,6˜.0˜19,24˜]pentacosa[8,16,18,24]tetraen]-15′-one 13′,13′-dioxide] | – | – | 0.153 | 134 | –
11 | C[C@@H]1[C@@H](C)C/C=C/[C@@](O)(C#CCN(C)C)[C@@H]2CC[C@H]2CN2C[C@@]3(CCCc4cc(Cl)ccc43)COc3ccc(cc32)C(=O)NS1(=O)=O [Example 100294, (1S,3′R,6′R,7′S,8′E,11′S,12′R)-6-chloro-7′-(3-(dimethylamino)-1-propyn-1-yl)-7′-hydroxy-11′,12′-dimethyl-3,4-dihydro-2H,15′H-spiro[naphthalene-1,22′-[20]oxa[13]thia[1,14]diazatetracyclo [14.7.2.0~3,6~.0~19,24~]pentacosa[8,16,18,24]tetraen]-15′-one 13′,13′-dioxide] | – | – | 0.118 | – | 116
12 | CO[C@@]1(CC2=N[C@H](C)C(=O)O2)/C=C/C[C@H](C)[C@@H](C)S(=O)(=O)NC(=O)c2ccc3c(c2)N(C[C@@H]2CC[C@H]21)C[C@@]1(CCCc2cc(Cl)ccc21)CO3 (stereo in doubt) [Example 100531] | – | – | 0.083 | 172 | –
13 | (1 S,3′R,6′R,7′S,8′E, 11′S,12′R)-6-chloro-11′,12′-dimethyl-7′-(2-methylpropoxy)-7′-((4-(3-oxetanyl)-1-piperazinyl)methyl)-3,4-dihydro-2H,15′H-spiro[naphthalene-1,22′-[20]oxa[13]thia[1,14]diazatetracyclo[14.7.2.0-3,6˜.0˜19,24˜]pentacosa[8,16,18,24]tetraen]-15′-one 13′,13′-dioxide [Example 348] | 2.62 | 5360 | – | – | –
